Biological target: Cannabinoid receptor 1 (Homo sapiens, UniProt P21554)
Sequence (P21554 whole entry): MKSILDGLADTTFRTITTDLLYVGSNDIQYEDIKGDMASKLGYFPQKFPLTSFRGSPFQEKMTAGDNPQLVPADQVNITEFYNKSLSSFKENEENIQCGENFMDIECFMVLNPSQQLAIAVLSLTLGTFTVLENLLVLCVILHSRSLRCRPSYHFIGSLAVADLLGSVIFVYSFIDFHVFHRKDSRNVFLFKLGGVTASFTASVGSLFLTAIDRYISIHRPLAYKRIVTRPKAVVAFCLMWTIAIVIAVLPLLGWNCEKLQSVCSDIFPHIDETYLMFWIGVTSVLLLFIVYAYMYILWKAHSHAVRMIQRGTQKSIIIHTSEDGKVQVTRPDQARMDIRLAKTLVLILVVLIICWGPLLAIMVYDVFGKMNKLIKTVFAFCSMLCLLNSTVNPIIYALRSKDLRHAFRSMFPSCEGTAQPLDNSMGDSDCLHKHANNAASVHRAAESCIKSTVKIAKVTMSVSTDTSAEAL

`CC(C)(C)c1nc(N2CCC(F)(F)C2)c2nn(Cc3ccc(C4(C(F)(F)F)N=N4)cc3Cl)nc2n1` [US10457686, Example 1] was tested, and the Ki was > 10 µM.

Source: BindingDB's records for patent US10457686 (Hoffmann-La Roche Inc., 2019)
